Broadly, the IC50 is the concentration at which inhibition is half-maximal.

The results in this text go back to patent publication US8071586B2, “Heterocyclyl compounds” (Hoffmann-La Roche Inc., priority 2008, dated 2011).

This experiment deals with T1, human chemokine receptor 2 isoform B (CCR2) (Homo sapiens, UniProt P41597).
T1 sequence (P41597 1-360 isoform P41597-2): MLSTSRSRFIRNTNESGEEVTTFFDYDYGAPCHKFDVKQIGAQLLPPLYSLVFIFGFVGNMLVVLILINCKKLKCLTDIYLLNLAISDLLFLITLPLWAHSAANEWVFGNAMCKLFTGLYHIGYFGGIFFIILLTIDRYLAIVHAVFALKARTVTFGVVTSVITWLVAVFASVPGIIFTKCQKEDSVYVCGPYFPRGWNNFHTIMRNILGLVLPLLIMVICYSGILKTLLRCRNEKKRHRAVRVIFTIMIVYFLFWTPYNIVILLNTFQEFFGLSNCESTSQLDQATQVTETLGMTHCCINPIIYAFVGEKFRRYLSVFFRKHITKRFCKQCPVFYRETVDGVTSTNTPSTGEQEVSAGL
In words: Calcium mobilization assay (FLIPR, MCP-1 stimulated CHOK1-CCR2B-A5 cells). Particulars: Ca mobilisation assay, CCR2 antagonist activity, inhibition of MCP-1 induced calcium increase. Type of experiment: cell-based. The gist of the method: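 Fluo-4-loaded CHOK1 cells stably expressing human CCR2B were preincubated with compound 20-30 min at 30 °C in DMEM/Hepes/probenecid/0.1% BSA buffer with 0.5% DMSO, then challenged with […] MCP-1. FLIPR calcium signal (max minus basal) gave IC50; agonism also monitored.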
Background: Calcium assays in cells follow changes in intracellular calcium, usually with a dye or a luminescent sensor.

For `C[C@H]1C(=O)N([C@H](CO)CCN2CCC3(CC3)[C@H](O)C2)CCN1C(=O)Nc1ccc(Cl)c(Cl)c1` [Example 106, (S)-4-[(S)-3-((S)-4-Hydroxy-6-aza-spiro[2.5]oct-6-yl)-1-hydroxymethyl-propyl]-2-methyl-3-oxo-piperazine-1-carboxylic acid (3,4-dichloro-phenyl)-amide], the IC50 came to 1 nM. As for `C[C@H]1C(=O)N([C@H](CO)CCN2CCC3(CC3)[C@H](O)C2)CCN1C(=O)Nc1cccc(Cl)c1` [Example 107, (S)-4-[(S)-3-((S)-4-Hydroxy-6-aza-spiro[2.5]oct-6-yl)-1-hydroxymethyl-propyl]-2-methyl-3-oxo-piperazine-1-carboxylic acid (3-chloro-phenyl)-amide], the figure is 2 nM.

In the case of `CC(=O)OC[C@H](CCN1CCC2(CC2)[C@H](O)C1)N1CCN(C(=O)Nc2ccc(Cl)c(Cl)c2)[C@@H](C)C1=O` [Example 108, Acetic acid (S)-2-[(S)-4-(3,4-dichloro-phenylcarbamoyl)-3-methyl-2-oxo-piperazin-1-yl]-4-((S)-4-hydroxy-6-aza-spiro[2.5]oct-6-yl)-butyl ester], the IC50 is 2 nM. As for `CC(=O)OC[C@H](CCN1CCC2(CC2)[C@H](O)C1)N1CCN(C(=O)Nc2cccc(Cl)c2)[C@@H](C)C1=O` [Example 109, Acetic acid (S)-2-[(S)-4-(3-chloro-phenylcarbamoyl)-3-methyl-2-oxo-piperazin-1-yl]-4-((S)-4-hydroxy-6-aza-spiro[2.5]oct-6-yl)-butyl ester], the figure is 10 nM; as for `COC(=O)OC[C@H](CCN1CCC2(CC2)[C@H](O)C1)N1CCN(C(=O)Nc2cccc(Cl)c2)[C@@H](C)C1=O` [Example 110, Carbonic acid (S)-2-[(S)-4-(3-chloro-phenylcarbamoyl)-3-methyl-2-oxo-piperazin-1-yl]-4-((S)-4-hydroxy-6-aza-spiro[2.5]oct-6-yl)-butyl ester methyl ester], 5 nM. With `CCNC(=O)OC[C@H](CCN1CCC2(CC2)[C@H](O)C1)N1CCN(C(=O)Nc2cccc(Cl)c2)[C@@H](C)C1=O` [Example 111, Ethyl-carbamic acid (S)-2-[(S)-4-(3-chloro-phenylcarbamoyl)-3-methyl-2-oxo-piperazin-1-yl]-4-((S)-4-hydroxy-6-aza-spiro[2.5]oct-6-yl)-butyl ester] the figure was 17 nM; with `COC(=O)OC[C@H](CCN1CCC2(CC2)[C@H](O)C1)N1CCN(C(=O)Nc2ccc(Cl)c(Cl)c2)[C@@H](C)C1=O` [Example 112, Carbonic acid (S)-2-[(S)-4-(3,4-dichloro-phenylcarbamoyl)-3-methyl-2-oxo-piperazin-1-yl]-4-((S)-4-hydroxy-6-aza-spiro[2.5]oct-6-yl)-butyl ester methyl ester], 2 nM.

`CC(C)OC(=O)OC[C@H](CCN1CCC2(CC2)[C@H](O)C1)N1CCN(C(=O)Nc2ccc(Cl)c(Cl)c2)[C@@H](C)C1=O` [Example 113, Carbonic acid (S)-2-[(S)-4-(3,4-dichloro-phenylcarbamoyl)-3-methyl-2-oxo-piperazin-1-yl]-4-((S)-4-hydroxy-6-aza-spiro[2.5]oct-6-yl)-butyl ester isopropyl ester]: the IC50 came to 1 nM. With `C[C@H]1C(=O)N([C@@H](CCN2CCC3(CC3)[C@H](O)C2)COC(=O)C(C)(C)C)CCN1C(=O)Nc1ccc(Cl)c(Cl)c1` [Example 114, 2,2-Dimethyl-propionic acid (S)-2-[(S)-4-(3,4-dichloro-phenylcarbamoyl)-3-methyl-2-oxo-piperazin-1-yl]-4-((S)-4-hydroxy-6-aza-spiro[2.5]oct-6-yl)-butyl ester] the figure was 6 nM; with `CC(C)C(=O)OC[C@H](CCN1CCC2(CC2)[C@H](O)C1)N1CCN(C(=O)Nc2ccc(Cl)c(Cl)c2)[C@@H](C)C1=O` [Example 115, Isobutyric acid (S)-2-[(S)-4-(3,4-dichloro-phenylcarbamoyl)-3-methyl-2-oxo-piperazin-1-yl]-4-((S)-4-hydroxy-6-aza-spiro[2.5]oct-6-yl)-butyl ester], 10 nM; with `CCCCCC(=O)OC[C@H](CCN1CCC2(CC2)[C@H](O)C1)N1CCN(C(=O)Nc2ccc(Cl)c(Cl)c2)[C@@H](C)C1=O` [Example 116, Hexanoic acid (S)-2-[(S)-4-(3,4-dichloro-phenylcarbamoyl)-3-methyl-2-oxo-piperazin-1-yl]-4-((S)-4-hydroxy-6-aza-spiro[2.5]oct-6-yl)-butyl ester], 5 nM. With `C[C@H]1C(=O)N([C@@H](CCN2CCC3(CC3)[C@H](O)C2)COC(=O)c2ccccc2)CCN1C(=O)Nc1ccc(Cl)c(Cl)c1` [Example 118, Benzoic acid (S)-2-[(S)-4-(3,4-dichloro-phenylcarbamoyl)-3-methyl-2-oxo-piperazin-1-yl]-4-((S)-4-hydroxy-6-aza-spiro[2.5]oct-6-yl)-butyl ester], the concentration for half-maximal inhibition (IC50) came to 3 nM. With `COc1ccc(C(=O)OC[C@H](CCN2CCC3(CC3)[C@H](O)C2)N2CCN(C(=O)Nc3ccc(Cl)c(Cl)c3)[C@@H](C)C2=O)cc1` [Example 119, 4-Methoxy-benzoic acid (S)-2-[(S)-4-(3,4-dichloro-phenylcarbamoyl)-3-methyl-2-oxo-piperazin-1-yl]-4-((S)-4-hydroxy-6-aza-spiro[2.5]oct-6-yl)-butyl ester] the figure was 4 nM; with `C[C@H]1C(=O)N(C[C@@H](O)CN2CCC3(CC3)[C@H](O)C2)CCN1C(=O)Nc1ccc(Cl)c(Cl)c1` [Example 120, (S)-4-[(S)-2-Hydroxy-3-((S)-4-hydroxy-6-aza-spiro[2.5]oct-6-yl)-propyl]-2-methyl-3-oxo-piperazine-1-carboxylic acid (3,4-dichloro-phenyl)-amide], 2 nM.

Take `C[C@H]1C(=O)N(C[C@@H](O)CN2CCC3(CC3)[C@H](O)C2)CCN1C(=O)Nc1cccc(Cl)c1` [Example 121, (S)-4-[(S)-2-Hydroxy-3-((S)-4-hydroxy-6-aza-spiro[2.5]oct-6-yl)-propyl]-2-methyl-3-oxo-piperazine-1-carboxylic acid (3-chloro-phenyl)-amide]: the IC50 worked out at 6 nM.

Take `C[C@H]1C(=O)N(C[C@H](O)CN2CCC3(CC3)[C@H](O)C2)CCN1C(=O)Nc1ccc(Cl)c(Cl)c1` [Example 122, (S)-4-[(R)-2-Hydroxy-3-((S)-4-hydroxy-6-aza-spiro[2.5]oct-6-yl)-propyl]-2-methyl-3-oxo-piperazine-1-carboxylic acid (3,4-dichloro-phenyl)-amide]: the IC50 was found to be 23 nM. As for `C[C@H]1C(=O)N(C[C@H](O)CN2CCC3(CC3)[C@H](O)C2)CCN1C(=O)Nc1cccc(Cl)c1` [Example 123, (S)-4-[(R)-2-Hydroxy-3-((S)-4-hydroxy-6-aza-spiro[2.5]oct-6-yl)-propyl]-2-methyl-3-oxo-piperazine-1-carboxylic acid (3-chloro-phenyl)-amide], the figure is 248 nM; as for `C[C@H]1C(=O)N([C@@H](CCN2CCC3(CC3)[C@H](O)C2)C(=O)N(C)C)CCN1C(=O)Nc1ccc(Cl)c(Cl)c1` [Example 124, (S)-4-[(S)-1-Dimethylcarbamoyl-3-((S)-4-hydroxy-6-aza-spiro[2.5]oct-6-yl)-propyl]-2-methyl-3-oxo-piperazine-1-carboxylic acid (3,4-dichloro-phenyl)-amide], 4 nM; as for `C[C@H]1C(=O)N([C@@H](CCN2CCC3(CC3)[C@H](O)C2)C(=O)N(C)C)CCN1C(=O)Nc1cccc(Cl)c1` [Example 125, (S)-4-[(S)-1-Dimethylcarbamoyl-3-((S)-4-hydroxy-6-aza-spiro[2.5]oct-6-yl)-propyl]-2-methyl-3-oxo-piperazine-1-carboxylic acid (3-chloro-phenyl)-amide], 16 nM.
